Results reported in patent US10314825B2, “Agent for treatment of PBC” (KOWA COMPANY, LTD., priority 2017, dated 2019).

How the values were obtained:
Type in all cases: in vivo, human
[1] = tested on: patients with dyslipidemia showing a high level of triglyceride (TG); assay: Changes in ALP levels after 12 weeks, clinical trial data (Example 1); details: for ALP level, Rate of change (LSmean): 12 weeks vs baseline
Experimental: Compound A was administered at a dose of 0.05 to 0.4 mg per day to Compound A group. […] Note that comparisons between the groups were investigated by using covariance analysis with baseline levels used as covariates.

[2] = tested on: patients with dyslipidemia showing a high level of triglyceride (TG); assay: Changes in total bilirubin levels after 12 weeks, clinical trial data (Example 1); details: for total bilirubin level, Rate of change (LSmean): 12 weeks vs baseline
Experimental: By using data (1965 cases in total) obtained in a clinical trial (8 tests with an administration period of 12 weeks or more) of Compound A, which had been performed for patients with dyslipidemia showing a high level of triglyceride (TG), the effects of Compound A for ALP and total bilirubin were investigated. Compound A was administered at a dose of 0.05 to 0.4 mg per day to Compound A group. […] Each compound was administered to Compound A group and a control group for 12 weeks, and changes in the levels of ALP before and after the administration are shown in Table 1 and FIG. 1, and changes in the levels of total bilirubin before and after the administration are shown in Table 2 and FIG. 2. Note that comparisons between the groups were investigated by using covariance analysis with baseline levels used as covariates.

[3] = tested on: patients with dyslipidemia showing a high level of TG being treated with ursodeoxycholic acid; assay: Changes in ALP levels after 12 weeks in patients being treated with ursodeoxycholic acid (Example 2); details: 0.05 to 0.4 mg per day
Experimental: (§1) Data of patients being treated with ursodeoxycholic acid (15 cases in total) were extracted from the data obtained in a clinical trial (8 tests with an administration period of 12 weeks or more) of Compound A, which had been performed for patients with dyslipidemia showing a high level of TG, the effects of Compound A for the ALP and the total bilirubin were investigated. Compound A was administered at a dose of 0.05 to 0.4 mg per day to Compound A group. Further, placebo was administered to a control group. Each compound was administered to Compound A group and a control group for 12 weeks, and changes in the levels of ALP before and after the administration are shown in Table 3 and FIG. 3, and changes in the levels of total bilirubin before and after the administration are shown in Table 4 and FIG. 4. Note that comparisons between the groups were investigated by using covariance analysis with baseline levels used as covariates.

[4] = tested on: patients with dyslipidemia showing a high level of TG being treated with ursodeoxycholic acid; assay: Changes in total bilirubin levels after 12 weeks in patients being treated with ursodeoxycholic acid (Example 2); details: 0.05 to 0.4 mg per day
Experimental: as §1

[5] = 0.05 to 0.4 mg per day, 12 weeks
[6] = 100 mg/day micronized fenofibrate capsule formulation
[7] = 106.6 mg/day solid dispersion fenofibrate tablet

SMILES	effect on level of ALP as compared with placebo [1, 5]	effect on level of ALP compared with fenofibrate at the maximum clinical dose (200 mg per day) ([1]; dose of 0.1 mg or more, 12 weeks)	effect on level of total bilirubin as compared with placebo [2, 5]	effect on level of ALP [3]	effect on level of total bilirubin [4]	ALP level, Rate of change (LSmean) [1, 6]	ALP level, 12 Weeks ([1]; 100 mg/day micronized fenofibrate capsule formulation, 12 weeks, baseline 226.3) [IU/L]	ALP level, Rate of change (LSmean) [1, 7]	ALP level, 12 Weeks ([1]; 106.6 mg/day solid dispersion fenofibrate tablet, 12 weeks, baseline 235.3) [IU/L]	ALP level, 12 Weeks ([1]; 200 mg/day micronized fenofibrate capsule formulation, 12 weeks, baseline 222.5) [IU/L]	total bilirubin level, Rate of change (LSmean) [2, 6]	total bilirubin level, 12 Weeks ([2]; 100 mg/day micronized fenofibrate capsule formulation, 12 weeks, baseline 0.8) [mg/dL]	total bilirubin level, Rate of change (LSmean) [2, 7]	total bilirubin level, 12 Weeks ([2]; 106.6 mg/day solid dispersion fenofibrate tablet, 12 weeks, baseline 0.8) [mg/dL]	total bilirubin level, Rate of change (LSmean) ([2]; 200 mg/day micronized fenofibrate capsule formulation)	total bilirubin level, 12 Weeks ([2]; 200 mg/day micronized fenofibrate capsule formulation, 12 weeks, baseline 0.9) [mg/dL]
CC[C@@H](Oc1cccc(CN(CCCOc2ccc(OC)cc2)c2nc3ccccc3o2)c1)C(=O)O [Compound A, (R)-2-[3-[[N-(benzoxazol-2-yl)-N-3-(4-methoxyphenoxy)propyl]aminomethyl]phenoxy] butyric acid]	decreases dose-dependently	decreases the level of ALP more strongly than the fenofibrate	decreases dose-dependently	decreases the levels of ALP and total bilirubin	decreases the levels of ALP and total bilirubin											
CC(C)OC(=O)C(C)(C)Oc1ccc(C(=O)c2ccc(Cl)cc2)cc1 [fenofibrate]						−11.1	198.7	−14.7	198.8	182.5	−5.2	0.7	−4.2	0.7	−9.3	0.7
